From the supplement of paper PMC10290057
Counter-ions that a name gives are not always drawn.

Assays:
[1] = tested on: HCT116; assay: AC50 cell viability (CellTiter-Glo); higher = less potent; conditions: 48 h
[2] = tested on: HCT116; assay: efficacy (fitted maximal change in viability relative to DMSO control); higher = less cytotoxic (negative = loss of viability); conditions: 48 h
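Throughout, for AC50 cell viability (CellTiter-Glo): HCT116 colorectal carcinoma cells screened at five concentrations per compound, luminescent viability scaled between DMSO wells and empty wells on each plate, curves fitted per compound.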
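Throughout, for efficacy (fitted maximal change in viability relative to DMSO control): Luminescence-based viability readout, five doses per compound, normalized against on-plate DMSO and empty-well controls, followed by dose-response curve fitting for every drug.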

Row | Compound | AC50 cell viability [1] | efficacy [2]
1 | Cc1n[nH]c2ccc(-c3cncc(OC[C@@H](N)Cc4c[nH]c5ccccc45)c3)cc12 | 0.417 µM | -80.2%
2 | CC(C)(C)OC(=O)Nc1ccc(-c2cc(C(=O)NCCCCCCC(=O)NO)no2)cc1 [ISOX] | 1.86 µM | -91.5%
3 | O=C(Nc1cccnn1)N1CCC(=Cc2cccc(Oc3ccc(C(F)(F)F)cn3)c2)CC1 | 14.8 µM | -72.6%
4 | CC[C@]12\C=C/CN3CC[C@]4([C@@H](N(C)C5=C4C=C(C(=C5)OC)[C@]6(CC7C[C@H](CN(C7)CC8=C6[NH]C9=C8C=CC=C9)C(C)(F)F)C(=O)OC)[C@](O)([C@@H]1OC(C)=O)C(=O)OC)[C@H]23 (some centres undefined) [Vinflunine (Tartrate)] | 0.209 µM | -67.8%
5 | C=C1CCC2[C@](C)(CO)C(O)CC[C@]2(C)C1C/C=C1/C(=O)OCC1O (some centres undefined) [Andrographolide] | 7.42 µM | -65.7%
6 | CC(C)(C)NC(=O)Nc1cccc(Nc2ncc(F)c(NC(C)(C)CO)n2)c1 [Bayer-18] | 18.6 µM | -54.8%
7 | c1cncc(CN2CCC(n3ncc4c(N5CCOCC5)nc(-c5ccc6[nH]ccc6c5)nc43)CC2)c1 [WAY-600] | 5.9 µM | -78.7%
8 | COc1cccc2c1C(=O)c1c(O)c3c(c(O)c1C2=O)C[C@@](O)(C(=O)CO)C[C@@H]3O[C@H]1C[C@H](N)[C@H](O)[C@H](C)O1 [Doxorubicin] | 0.372 µM | -75.3%
9 | C[C@@H]1CN[C@H]2[C@@H](C)[C@@]3(CC[C@H]4[C@@H]5CC[C@@H]6C[C@@H](CC[C@]6(C)[C@H]5C\C4=C(C)\C3)N[S+](C)([O-])=O)O[C@@H]2C1 [Patidegib] | 14.8 µM | -94.4%
10 | NC(=O)c1ccc2[nH]c(-c3ccc(Oc4ccc(Cl)cc4)cc3)nc2c1 [BML-277] | 18.6 µM | -67.3%
11 | Nc1ncccc1-c1nc2ccc(-c3ccccc3)nc2n1-c1ccc(C2(N)CCC2)cc1 [Miransertib] | 14.8 µM | -126%
12 | C[C@H](NC(=O)c1sccc1OCc1ccc(Cl)cc1)c1ccccc1 | 16.6 µM | -50.9%
13 | C#CCC(Cc1cnc2nc(N)nc(N)c2n1)c1ccc(C(=O)N[C@@H](CCC(=O)O)C(=O)O)cc1 (some centres undefined) [Pralatrexate] | 0.00468 µM | -91.1%
14 | Cc1ccc(C(N)=O)cc1Nc1nccc(-c2cn(C(C)C)c3cnccc23)n1 | 2.09 µM | -69.4%
15 | COC[C@H]1OC(=O)C2=COC3=C2[C@@]1(C)\C4=C(\[C@@H]5CC[C@H](O)[C@@]5(C)C[C@H]4OC(C)=O)C3=O [17-hydroxy Wortmannin] | 20.9 µM | -59.9%
16 | COc1cc2ncnc(Nc3ccc(F)c(Cl)c3)c2cc1NC(=O)/C=C/CN1CCCCC1 [Dacomitinib] | 8.33 µM | -99.1%
17 | NC(=O)c1c(OCc2c(F)cc(Br)cc2F)nsc1NC(=O)NCCCCN1CCCC1 [OSI-632] | 23.5 µM | -100%
18 | CCNC(=O)Nc1ccc(-c2nc3c(c(N4CCOC[C@@H]4C)n2)CCN(C2COC2)C3)cc1 [GDC-0349] | 3.32 µM | -46.9%
19 | Cc1csc(-c2nnc(Nc3ccc(Oc4ncccc4-c4ccnc(N)n4)cc3)c3ccccc23)c1 [AMG-900] | 16.6 µM | -52.9%

Row | Compound | AC50 cell viability [1] | efficacy [2]
20 | Clc1ccc(C2(c3ccc(-c4cn[nH]c4)cc3)CCNCC2)cc1 [AT-7867] | 18.6 µM | -87.4%
21 | COc1cc2ncnc(-n3nc(-c4ccccn4)nc3N)c2cc1OC | 4.68 µM | -47.9%
22 | COC(=O)Nc1nc2cc(C(=O)c3ccc(F)cc3)ccc2[nH]1 [Flubendazole] | 0.468 µM | -54.4%
23 | CN(C)Cc1ccc(-c2nc3cccc4c3n2CCNC4=O)cc1 | 5.9 µM | -65.6%
24 | C=CCn1c(=O)c2cnc(Nc3ccc(N4CCN(C)CC4)cc3)nc2n1-c1cccc(C(C)(C)O)n1 [MK-1775] | 0.742 µM | -73.8%
25 | CC(O)(C#Cc1ccc2c(c1)N(c1nc(N)ncc1Cl)CC2)c1nccs1 (centres undefined) | 16.6 µM | -76.1%
26 | CN[C@@H](C)C(=O)N[C@H]1CCCC[C@H]2CC[C@@H](C(=O)N[C@@H](c3ccccc3)c3cn(CCCCc4ccc(CCCCn5cc([C@@H](NC(=O)[C@@H]6CC[C@@H]7CCCC[C@H](NC(=O)[C@H](C)NC)C(=O)N76)c6ccccc6)nn5)cc4)nn3)N2C1=O [SM-164] | 23.5 µM | -89.2%
27 | COc1cccc2c(NCc3ccccc3)nc(-n3c(N)nc4ccccc43)nc12 | 5.9 µM | -93.4%
28 | ClC/1=C(NCCN2CCOCC2)/C(=O)C3=C(C=CC=N3)C1=O [DA-3003-1] | 5.9 µM | -90.7%
29 | C[C@]12CC[C@@H]3c4ccc(O)cc4CC[C@H]3[C@@H]1CC[C@@H]2O [Estradiol] | 20.9 µM | -60.4%
30 | c1ccc(-c2ccc(CNc3nc(-c4ccccn4)nnc3-c3ccccc3)cc2)cc1 [ML-228] | 1.48 µM | -77%
31 | Nc1nc(NCCNc2ncc(-n3ccnc3)c(-c3ccc(Cl)cc3Cl)n2)ccc1[N+](=O)[O-] | 2.09 µM | -32%
32 | ClC1=CC=C(C=C1)C(C#N)C2=C(Cl)C=C(C=C2Cl)N3\N=C/C(=O)NC3=O (centres undefined) [Diclazuril] | 23.5 µM | -56%
33 | CCN1CCN(C(=O)Cc2ccc(Nc3ncc(F)c(Nc4ccc(C(=O)Nc5ccccc5Cl)cc4)n3)cc2)CC1 [Aurora A Inhibitor I] | 7.42 µM | -105%
34 | CC(C)(NC(=O)O[C@@H]1CN2CCC1CC2)c1csc(-c2ccc(F)cc2)n1 [Ibiglustat] | 18.6 µM | -43.3%
35 | COc1ccccc1N1CCN(CC(O)COc2cccc3ccccc23)CC1 (centres undefined) [Naftopidil] | 18.6 µM | -57.2%
36 | Fc1ccc(CNc2ncnc3ccc(F)cc23)cc1 [Spautin-1] | 1.48 µM | -34.2%
37 | C[C@@]12C(=O)OC(=O)[C@]1(C)[C@H]1CC[C@@H]2O1 [Cantharidin] | 9.34 µM | -86.9%
38 | c1cc(-c2cnn3cc(-c4ccc(OCCN5CCCCC5)cc4)cnc23)ccn1 [Dorsomorphin] | 4.68 µM | -82.7%

Row | Compound | AC50 cell viability [1] | efficacy [2]
39 | CCN(C)[S+](=O)([O-])Nc1ccc(F)c(C(=O)c2c[nH]c3ncc(-c4cnc(C5CC5)nc4)cc23)c1F [PLX-7904] | 16.6 µM | -69.9%
40 | NC/1=N/C(=O)C2=C([NH]C=C2CCC3=CC=C(C=C3)C(=O)N[C@@H](CCC(O)=O)C(O)=O)N1 [Pemetrexed] | 0.742 µM | -40.7%
41 | CC[C@H]1/C=C\C=C/C[C@@H](C)[C@H](O)[C@@](C)(O)C(=O)[C@@H](C)[C@H](O)[C@@H](C)C(=O)[C@@H](C)[C@H](O)[C@@H](C)/C=C/C(=O)O[C@@H]2[C@H](C)[C@H](CC1)O[C@]1(CC[C@H](C)[C@H](C[C@@H](C)O)O1)[C@H]2C [Oligomycin A] | 16.6 µM | -112%
42 | Cc1cnc(Nc2ccc(OCCN3CCCC3)cc2)nc1Nc1cccc([S+](=O)([O-])NC(C)(C)C)c1 | 2.63 µM | -109%
43 | COc1ccc(Cl)c(Nc2ncnc3cc(OCC4CCN(C)CC4)c(OC)cc23)c1 | 23.5 µM | -93.6%
44 | CC(C)n1nc(-c2ccc3oc(N)nc3c2)c2c(N)ncnc21 [INK-128] | 0.372 µM | -100%
45 | O=C1c2c(O)ccc(O)c2C(=O)c2c(NCCNCCO)ccc(NCCNCCO)c21 [Mitoxantrone] | 1.18 µM | -91.4%
46 | COc1ccc([S+](=O)([O-])N(C(C)=O)c2ccccc2/C=C/c2cc[n+]([O-])cc2)cc1 [IVX-214] | 4.17 µM | -59.1%
47 | COc1ccc(Cc2nccc3cc(OC)c(OC)cc23)cc1OC [Papaverine hydrochloride] | 4.17 µM | -61.1%
48 | COC1=CC2=NC=CC(=C2C=C1)OC3=CN=C(NC(=O)C/4=C(C)/N(CC(C)(C)O)N(C4=O)C5=CC=CC=C5)C=C3 [AMG-458] | 16.6 µM | -71.6%
49 | CC(=O)Nc1ccc([C@H](C)C(=O)Nc2ncc(C(C)C)s2)cc1 | 2.09 µM | -59.3%
50 | Cc1ccc(NC(=O)Nc2cc(C(F)(F)F)ccc2F)cc1Nc1ccc2c(c1)NC(=O)/C2=C\c1ccc[nH]1 [GNF-5837] | 14.8 µM | -97.5%
51 | NC(=O)c1cccc2c(NC(CN3CCC3)c3ccc(Cl)c(C(F)(F)F)c3)ncnc12 (centres undefined) [M2698] | 10.5 µM | -116%
52 | CN1CCC(CNc2ccc3ncc(-c4cccc(OC(F)(F)F)c4)n3n2)CC1 [SGI-1776] | 6.61 µM | -102%
53 | Cn1cc(-c2cnn3c(N)c(Br)c(C4CCCNC4)nc23)cn1 (centres undefined) [MK-8776] | 10.5 µM | -113%
54 | C[C@H](NC1=C2N=C[NH]C2=NC=N1)C/3=C/C4=C(C(=CC=C4)Cl)C(=O)N3C5=CC=CC=C5 [Duvelisib] | 18.6 µM | -72%
55 | COc1cc2c(Nc3ccc(Cl)c(Cl)c3F)ncnc2cc1OC[C@@H]1C[C@@H]2CN(C)C[C@@H]2C1 [Tesevatinib] | 10.5 µM | -119%
56 | CN1CCN(CCOc2cc(OC3CCOCC3)c3c(Nc4c(Cl)ccc5c4OCO5)ncnc3c2)CC1 [Saracatinib] | 18.6 µM | -101%
57 | Cc1ccc([S+](=O)([O-])Nc2cc(Cl)ccc2C(=O)Nc2nc(-c3ccccc3)cs2)cc1 | 2.63 µM | -82.5%
